Experimental data published in patent publication US5013841A, “Oxo quinoline derivatives” (Dainippon Pharmaceutical Co., Ltd., priority 1987, dated 1991).
In brackets after ≈: the same amount, converted by molar mass. Where two headings read alike, the source gives them in different places.

Experiments:
S. aureus No. 80 = assay: In vitro antibacterial activity (twofold agar-dilution method); format: cell-based; details: Staphylococcus aureus; S. aureus No. 80; agar dilution, 20 h, 37° C., calculated for free base; read-out: minimum inhibitory concentration (MIC)
Experimental: (§1) The figures in the table show minimum inhibitory concentrations (MIC) (μg/ml), calculated for free base. The minimum inhibitory concentration was determined by the twofold agar-dilution method, which was recommended by Japan Society of Chemotherapy (Chemotherapy, 29(1), 76(1981)), using Muller-Hinton agar. One loopful of an overnight culture of test organisms in Mueller-Hinton broth was inoculated onto 10-ml drug-containing agar layers in petri dishes. Bacterial inocula contained approximately 10^6 colonyl-formingunits. Bacterial growth was observed after 20-hour incubation at 37° C. The MIC was defined as the lowest drug concentration which prevented visible bacterial growth.

S. epidermidis No. 8 = assay: as above; format: cell-based; details: Staphylococcus epidermidis, read-out: minimum inhibitory concentration (MIC)
Experimental: as §1

S. pyogenes Cook = assay: as above; format: cell-based; details: Streptococcus pyogenes, 20 h, 37° C., calculated for free base, read-out: minimum inhibitory concentration (MIC)
Experimental: as §1

M. pneumoniae Mac = assay: Antimycoplasma activity (twofold agar dilution method); format: cell-based, Mycoplasma pneumoniae; details: Mycoplasmoides pneumoniae, 168 h; M. pneumoniae Mac; Chanock agar, 37° C., 7 days, aerobic, calculated for free base; read-out: minimum inhibitory concentration (MIC)
Experimental: (§2) The figures in the table show minimum inhibitory concentrations (MIC), (μg/ml), calculated for free base.
(§3) Minimum inhibitory concentrations (MIC) were determined by the twofold agar dilution method. The media used were Chanock broth and agar PPLD broth and agar (Difco) supplemented with 20% horse serum and 10% fresh yeast extract). A 2-3 day broth culture of organisms was diluted with Chanock broth to a cell density of about 10^6 cells/ml. One loopful (about […]) of the organism dilution was spotted onto 10-ml drug containing Chanock agar in petri dishes using a multiple inoculator (Cathra International). The petri dishes were incubated at 37° C. for 7 and 2 days for Mycoplasma pneumoniae and other Mycoplasma spp. respectively. Incubation was performed anaerobically using the Gaspak anaerobic system (BBL) for M. buccale, M. fermentans, M. hominis, M. orale and M. salivarium, and aerobically for other Mycoplasma spp. The MIC was defined as the lowest compound concentration at which no growth of organism was detected.

A. laidlawii PG-8 = assay: as above; format: cell-based; details: Acholeplasma laidlawii, PG8, 48 h, read-out: minimum inhibitory concentration (MIC)
Experimental: as §2, §3

M. arginini G-230 = assay: as above; format: cell-based; details: 48 h, read-out: minimum inhibitory concentration (MIC)
Experimental: as §2, §3

M. buccale CH-20249 = assay: as above; format: cell-based; details: 48 h, read-out: minimum inhibitory concentration (MIC)
Experimental: as §2, §3

M. fermentans PG-18 = assay: as above; format: cell-based; details: Mycoplasmopsis fermentans, PG18, 48 h; M. fermentans PG-18; Chanock agar, 37° C., 2 days, anaerobic, calculated for free base; read-out: minimum inhibitory concentration (MIC)
Experimental: as §2, §3

M. hominis PG-21 = assay: as above; format: cell-based; details: Metamycoplasma hominis, PG21, 48 h; M. hominis PG-21; Chanock agar, 37° C., 2 days, anaerobic, calculated for free base; read-out: minimum inhibitory concentration (MIC)
Experimental: as §2, §3

M. hyorhinis BST-7 = assay: as above; format: cell-based; details: Mesomycoplasma hyorhinis, BST7, 48 h, read-out: minimum inhibitory concentration (MIC)
Experimental: as §2, §3

M. orale CH-19299 = assay: as above; format: cell-based; details: 48 h, read-out: minimum inhibitory concentration (MIC)
Experimental: as §2, §3

M. salivarium PG-20 = assay: as above; format: cell-based; details: 48 h, read-out: minimum inhibitory concentration (MIC)
Experimental: as §2, §3

[1] = tested on: C. Trachomatics G/ur 1317; assay: Antichlamydia activity (inclusion bodies in McCoy cells); format: cell-based; details: 36° C., 40-48 h, calculated for free base, read-out: minimum inhibitory concentration (MIC)
Experimental: (§4) Minimum inhibitory concentrations (MIC) were determined as follows. McCoy cells were freshly cultured in Eagle's minimum essential medium (EMEM) (Flow) supplemented with 4% fetal bovine serum and 0.03% L-glutamine. The cells were trypsinized and suspended in the same culture medium at a cell concentration of 1-2×10^5 cells/ml. One ml of the cell suspension was pipetted into flat-bottomed plastic tubes (14 mm in diameter) containing a cover slip (12 mm in diameter). The tubes were incubated in 5% CO2 -air at 36° C. for 20 hours. One-half ml of a chlamydial suspension (ca. 1-4×10^3 inclusion body forming units) was added into each tube, which was then centrifuged at 1500×g for 60 minutes. The tubes were incubated for 1 hour at 36° C. The medium was changed with 1 ml of EMEM supplemented with 8% fetal bovine serum, 0.03% L-blutamine, 1μg/ml cycloheximide and 0.5% glucose, and containing drugs at various concentrations. After further incubation at 36° C. for 40-48 hours, the cells on the cover glasses were stained with the Giemsa's solution. […] The MIC was defined as the lowest drug concentration where there were no inclusion bodies in all the cells on the cover slip.

[2] = tested on: C. Trachomatics G/ur 1467; assay: as above; format: cell-based; details: 36° C., 40-48 h, calculated for free base, read-out: minimum inhibitory concentration (MIC)
Experimental: as §4

[3] = tested on: C. Trachomatics G/ur 1483; assay: as above; format: cell-based; details: 36° C., 40-48 h, calculated for free base, read-out: minimum inhibitory concentration (MIC)
Experimental: as §4

C. Trachomatics G/ur 931 = assay: as above; format: cell-based; details: 36° C., 40-48 h, calculated for free base, read-out: minimum inhibitory concentration (MIC)
Experimental: as §4

[4] = Acute oral toxicity in mice; details: mouse, in vivo, male mice (ddY), 7 days, Behrens-Kaerber method, read-out: median lethal dose (LD50)
Experimental: A suspension containing each of compounds of this invention in various concentrations was orally given to male mice (ddY) at a dose of 0.1 ml per 10 g of body weight. The number of dead mice was counted after 7 days, and the value of median lethal dose (LD50, mg/kg) was calculated in accordance with the Behrens-Kaerber method.

Structure (SMILES) | MIC (S. aureus No. 80) | MIC (S. pyogenes Cook) | MIC (M. pneumoniae Mac) | MIC (M. fermentans PG-18) | MIC (M. hominis PG-21) | MIC [1] | MIC [2] | MIC [3] | MIC (C. Trachomatics G/ur 931) | LD50 at 168 h [4] | also measured
C[C@@H]1CN(c2cc3c(c(N)c2F)c(=O)c(C(=O)O)cn3C2CC2)C[C@H](C)N1 [Compound 2, 5-amino-1-cyclopropyl-6-fluoro-7-(cis-3,5-dimethyl-1-piperazinyl)-1,4-dihydro-4-oxoquinoline-3-carboxylic acid] | 0.025 µg/mL (≈ 0.0668 µM) | 0.39 µg/mL (≈ 1.04 µM) | 0.1 µg/mL (≈ 0.267 µM) | 0.025 µg/mL (≈ 0.0668 µM) | 0.1 µg/mL (≈ 0.267 µM) | 0.063 µg/mL (≈ 0.168 µM) | 0.063 µg/mL (≈ 0.168 µM) | 0.063 µg/mL (≈ 0.168 µM) | 0.063 µg/mL (≈ 0.168 µM) | > 2000 mg/kg | MIC (S. epidermidis No. 8; NO.8, 20 h): 0.1 µg/mL (≈ 0.267 µM); MIC (A. laidlawii PG-8): 0.05 µg/mL (≈ 0.134 µM); MIC (M. arginini G-230): 0.05 µg/mL (≈ 0.134 µM); MIC (M. buccale CH-20249): 0.05 µg/mL (≈ 0.134 µM); MIC (M. hyorhinis BST-7): 0.05 µg/mL (≈ 0.134 µM); MIC (M. orale CH-19299): 0.39 µg/mL (≈ 1.04 µM); MIC (M. salivarium PG-20): 0.39 µg/mL (≈ 1.04 µM)
Nc1c(F)c(N2CCNCC2)cc2c1c(=O)c(C(=O)O)cn2C1CC1 [Compound 1] | 0.05 µg/mL (≈ 0.144 µM) | 0.2 µg/mL (≈ 0.577 µM) | 0.1 µg/mL (≈ 0.289 µM) | 0.1 µg/mL (≈ 0.289 µM) | 0.39 µg/mL (≈ 1.13 µM) | 0.25 µg/mL (≈ 0.722 µM) | 0.25 µg/mL (≈ 0.722 µM) | 0.25 µg/mL (≈ 0.722 µM) | 0.25 µg/mL (≈ 0.722 µM) | > 2000 mg/kg | MIC (S. epidermidis No. 8; S. epidermidis No. 8, agar dilution, 20 h, 37° C., calculated for free base): 0.025 µg/mL (≈ 0.0722 µM); MIC (A. laidlawii PG-8; A. laidlawii PG-8, Chanock agar, 37° C., 2 days, aerobic, calculated for free base): 0.1 µg/mL (≈ 0.289 µM); MIC (M. arginini G-230; M. arginini G-230, Chanock agar, 37° C., 2 days, aerobic, calculated for free base): 0.1 µg/mL (≈ 0.289 µM); MIC (M. buccale CH-20249; M. buccale CH-20249, Chanock agar, 37° C., 2 days, anaerobic, calculated for free base): 0.1 µg/mL (≈ 0.289 µM); MIC (M. hyorhinis BST-7; M. hyorhinis BST-7, Chanock agar, 37° C., 2 days, aerobic, calculated for free base): 0.1 µg/mL (≈ 0.289 µM); MIC (M. orale CH-19299; M. orale CH-19299, Chanock agar, 37° C., 2 days, anaerobic, calculated for free base): 0.39 µg/mL (≈ 1.13 µM); MIC (M. salivarium PG-20; M. salivarium PG-20, Chanock agar, 37° C., 2 days, anaerobic, calculated for free base): 1.56 µg/mL (≈ 4.5 µM)
